# Where a name gives a salt, the structure may show the parent alone.
# Assays:
# RET kinase = RET kinase (Homo sapiens, UniProt P07949); assay: In-vitro enzyme activity test, RET kinase; format: biochemical; details: ATP 20 μM; 10 concentrations 3 μM to 0.152 nM
# Method: (§1) The enzyme activity was detected by a Z′-LYTE™ kinase test, and inhibitory effects of the compounds onRET and RET (V804M) kinases were evaluated with an ICs value of each compound as an index.
# (§2) The compounds used for RET and RET (V804M) kinase tests were diluted 3-fold, in 10 concentration gradients ranging from 3 μM to 0.152 nM; and the content of DMSO in detection reaction was 1%.
# (§3) Basic reaction buffer, 20 mM 4-(2-hydroxyethyl)piperazine-1-ethanesulfonic acid (Hepes) buffer (pH 7.5), 10 mM MgCl2. 1 mM 1,2-bis[2-[bis(carboxymethyl)amino]ethoxy]ethane (EGTA), 0.02% polyoxyethylene lauryl ether (Brij35), 0.02 mg/mL bovine serum albumin, 0.1 mM of Na3VO4, 2 mM dithiothreitol (DTT) and 1% DMSO.
# (§4) The compounds to be tested were dissolved in a 100% DMSO system to be diluted to 10 mM for further use. The solution was diluted by using Integra Viaflo Assist.
# (§5) Test conditions: concentrations of RET kinase, peptide substrate CHKtide and adenosine triphosphate (ATP) were […], 1000 μM and 20 μM, respectively, and concentrations of RET (V804M) kinase, substrate peptide and ATP were […], 1000 μM and 30 μM, respectively.
# (§6) Reaction process: compound solutions of different concentrations were added to a kinase/peptide solution prepared according to the test conditions, the obtained solution was incubated at room temperature for 20 minutes, and then 33P-ATP of corresponding concentrations were added, and the obtained solution was incubated at room temperature for 120 minutes. The radioactivity was detected by a filter-binding method.
# (§7) The reaction was terminated by adding phosphoric acid (concentration, 0.5%) into a kinase reaction solution, and plate reading was carried out with an Envision instrument.
# (§8) Data were converted into phosphorylation rate and inhibition rate, and the parametric curve was fitted by using GraphPad Software to obtain IC50 data of the compounds.
# RET (V804M) kinase = RET (V804M) kinase (Homo sapiens, UniProt P07949, V804M); assay: In-vitro enzyme activity test, RET (V804M) kinase; format: biochemical; details: ATP 30 μM; 10 concentrations 3 μM to 0.152 nM
# Sequence of RET (V804M) kinase (P07949 29-1114 V804M): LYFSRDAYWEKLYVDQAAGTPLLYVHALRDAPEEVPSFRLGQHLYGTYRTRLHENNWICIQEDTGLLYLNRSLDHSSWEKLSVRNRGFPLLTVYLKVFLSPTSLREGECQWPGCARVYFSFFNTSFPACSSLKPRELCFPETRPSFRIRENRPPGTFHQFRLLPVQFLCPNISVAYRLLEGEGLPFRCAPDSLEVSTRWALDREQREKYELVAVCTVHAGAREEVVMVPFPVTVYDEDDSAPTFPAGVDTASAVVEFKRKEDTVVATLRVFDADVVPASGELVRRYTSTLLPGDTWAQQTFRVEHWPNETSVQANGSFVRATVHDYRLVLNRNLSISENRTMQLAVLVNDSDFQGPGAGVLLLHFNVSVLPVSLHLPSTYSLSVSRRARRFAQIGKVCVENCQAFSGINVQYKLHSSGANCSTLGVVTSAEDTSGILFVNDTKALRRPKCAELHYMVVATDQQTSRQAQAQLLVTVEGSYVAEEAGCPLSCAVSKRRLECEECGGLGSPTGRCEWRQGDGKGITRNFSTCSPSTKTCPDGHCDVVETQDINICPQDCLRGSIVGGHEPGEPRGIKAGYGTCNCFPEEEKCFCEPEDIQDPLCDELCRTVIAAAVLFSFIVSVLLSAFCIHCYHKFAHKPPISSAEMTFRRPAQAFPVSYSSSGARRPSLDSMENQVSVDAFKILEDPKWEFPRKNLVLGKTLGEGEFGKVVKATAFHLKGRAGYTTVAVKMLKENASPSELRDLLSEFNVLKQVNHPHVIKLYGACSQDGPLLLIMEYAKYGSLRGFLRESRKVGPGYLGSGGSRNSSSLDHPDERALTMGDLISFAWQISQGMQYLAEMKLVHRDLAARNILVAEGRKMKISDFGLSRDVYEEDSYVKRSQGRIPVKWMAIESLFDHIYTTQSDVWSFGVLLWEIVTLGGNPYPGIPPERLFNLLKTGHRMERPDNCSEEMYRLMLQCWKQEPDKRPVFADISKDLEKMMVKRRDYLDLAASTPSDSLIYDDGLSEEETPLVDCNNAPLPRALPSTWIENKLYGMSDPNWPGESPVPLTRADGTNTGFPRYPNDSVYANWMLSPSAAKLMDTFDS
# Method: as §1, §2, §3, §4, §5, §6, §7, §8
# Sequence of RET kinase (P07949 29-1114): as the sequence (P07949 29-1114 V804M) above, with M776V counted along it
Compound,IC50 (RET kinase),IC50 (RET (V804M) kinase)
N#Cc1cnn2cc(C3CC3)cc(-c3ccc(N4CCN(Cc5c(F)cccc5F)CC4)nc3)c12 [Compound 1],3.66 nM,36.1 nM
N#Cc1cnn2cc(N3CCOCC3)cc(-c3ccc(N4CC5CC(C4)N5Cc4cnc5[nH]ccc5c4Cl)nc3)c12 [Compound 16],6.08 nM,–
N#Cc1cnn2cc(C3=CCOCC3)cc(-c3ccc(N4CC5CC(C4)N5Cc4cnc5[nH]ccc5c4)nc3)c12 [Compound 35],1.57 nM,5.47 nM
N#Cc1cnn2cc(C3=CCOCC3)cc(-c3ccc(N4CC5CC(C4)N5Cc4ccc5[nH]cnc5c4)nc3)c12 [Compound 37],2.3 nM,15.6 nM
COc1ccc(CN2C3CC2CN(c2ccc(-c4cc(C5=CCNC(C)C5)cn5ncc(C#N)c45)cn2)C3)cn1 (stereo not drawn) [Compound 41],3.09 nM,11.3 nM
N#Cc1cnn2cc(C3=CCOCC3)cc(-c3cnc(N4CC5CC(C4)N5Cc4ccc5[nH]ccc5c4)cn3)c12 [Compound 45],1.83 nM,7.53 nM
COc1ccc(CN2C3CC2CN(c2ccc(-c4cc(C5=CC(C)(C)OCC5)cn5ncc(C#N)c45)cn2)C3)cn1 [Compound 50],1.87 nM,–
COc1ccc(CN2C3CC2CN(c2ccc(-c4cc(C5=CCOC(C)(C)C5)cn5ncc(C#N)c45)cn2)C3)cn1 [Compound 51],1.73 nM,–
CN1CCC(c2cc(-c3ccc(N4CCN(Cc5c(F)cccc5F)CC4)nc3)c3c(C#N)cnn3c2)CC1 [Hydrochloride of compound 2],95.5 nM,1410 nM
C[C@@H](C(=O)N1CCN(c2ccc(-c3cc(N4CCOCC4)cn4ncc(C#N)c34)cn2)CC1)c1ccccc1 [Hydrochloride of compound 4],2.42 nM,22.7 nM
N#Cc1cnn2cc(C3=CCNCC3)cc(-c3ccc(N4CCN(Cc5c(F)cccc5F)CC4)nc3)c12 [Tfifluoroacetate of compound 25],1.62 nM,11 nM
CN1CCC(c2cc(-c3ccc(N4CCN(Cc5c(F)cccc5F)CC4)nc3)c3c(C#N)cnn3c2)C1 (stereo not drawn) [Trifluoroacetate of compound 6],34.8 nM,–
CCN1CCC(c2cc(-c3ccc(N4CCN(Cc5c(F)cccc5F)CC4)nc3)c3c(C#N)cnn3c2)C1 (stereo not drawn) [Trifluoroacetate of compound 7],239 nM,1930 nM
CCN1CCN(c2cc(-c3ccc(N4CC5CC(C4)N5Cc4ccc(OC)nc4)nc3)c3c(C#N)cnn3c2)CC1 [Trifluoroacetate of compound 17],5.25 nM,–
COc1ccc(CN2C3CC2CN(c2ccc(-c4cc(N5CCN(C)C(=O)C5)cn5ncc(C#N)c45)cn2)C3)cn1 [Trifluoroacetate of compound 19],2.35 nM,–
COc1ccc(CN2C3CC2CN(c2ccc(-c4cc(N5CCC(C)(O)CC5)cn5ncc(C#N)c45)cn2)C3)cn1 [Trifluoroacetate of compound 21],1.98 nM,–
N#Cc1cnn2cc(C3=CCOCC3)cc(-c3ccc(N4CC5CC(C4)N5Cc4cnc5c(c4)OCO5)nc3)c12 [Trifluoroacetate of compound 44],2.34 nM,–
COc1ccc(CN2C3CC2CN(c2ccc(-c4cc(C5=CCNC(C)(C)C5)cn5ncc(C#N)c45)cn2)C3)cn1 [Trifluoroacetate of compound 48],2.13 nM,–
COc1ccc(CN2C3CC2CN(c2ccc(-c4cc(C5=CCOC5)cn5ncc(C#N)c45)cn2)C3)cn1 [Trifluoroacetate of compound 54],2.42 nM,–
COc1ccc(CN2C3CC2CN(c2ccc(-c4cc(N5CCC(OC)C5)cn5ncc(C#N)c45)cn2)C3)cn1 (stereo not drawn) [Trifluoroacetate of compound 77],4.39 nM,–
COc1ccc(CN2C3CC2CN(c2ccc(-c4cc(N5CCC(C)(O)C5)cn5ncc(C#N)c45)cn2)C3)cn1 (stereo not drawn) [Trifluoroacetate of compound 82],2.34 nM,–
COc1ccc(CN2C3CC2CN(c2ccc(-c4cc(N5CC[C@@H](OC)C5)cn5ncc(C#N)c45)cn2)C3)cn1 [compound 79],1.39 nM,–

# These reach a lower IC50 (RET kinase). Values come first.
IC50 (RET kinase),IC50 (RET (V804M) kinase),Compound
1.22 nM,3.79 nM,COc1cnc(CN2C3CC2CN(c2ccc(-c4cc(C5=CCOCC5)cn5ncc(C#N)c45)cn2)C3)cn1 [Compound 36]
1.21 nM,5.93 nM,N#Cc1cnn2cc(C3=CCOCC3)cc(-c3ccc(N4CC5CC(C4)N5Cc4ccc5[nH]ccc5c4)nc3)c12 [Compound 38]
1.13 nM,–,COc1ccc(CN2C3CC2CN(c2ccc(-c4cc(C5=CCC(C)(O)CC5)cn5ncc(C#N)c45)cn2)C3)cn1 (stereo not drawn) [Compound 42]
1.09 nM,–,COc1ccc(CN2C3CC2CN(c2ccc(-c4cc(N5CC[C@@H](O)C5)cn5ncc(C#N)c45)cn2)C3)cn1 [Compound 70]
0.59 nM,–,COc1ccc(CN2C3CC2CN(c2ccc(-c4cc(N5CC[C@H](O)C5)cn5ncc(C#N)c45)cn2)C3)cn1 [Compound 71]
1.04 nM,–,COc1ccc(CN2CCN(c3ccc(-c4cc(C5=CCOCC5)cn5ncc(C#N)c45)cn3)CC2)cn1 [Hydrochloride of compound 29]
1.15 nM,3.14 nM,COc1ccc(CN2C3CC2CN(c2cnc(-c4cc(C5CC5)cn5ncc(C#N)c45)cn2)C3)cn1 [Trifluoroacetate of compound 8]
0.97 nM,1.8 nM,COc1ccc(CN2C3CC2CN(c2ccc(-c4cc(N5CCOCC5)cn5ncc(C#N)c45)cn2)C3)cn1 [Trifluoroacetate of compound 9]
0.69 nM,3.79 nM,COc1ccc(CN2C3CC2CN(c2ccc(-c4cc(N5CCNCC5)cn5ncc(C#N)c45)cn2)C3)cn1 [Trifluoroacetate of compound 10]
1.3 nM,0.61 nM,COc1c(F)cc(CN2C3CC2CN(c2ccc(-c4cc(N5CCOCC5)cn5ncc(C#N)c45)cn2)C3)cc1F [Trifluoroacetate of compound 11]
0.61 nM,0.51 nM,CC(C)Oc1ccc(CN2C3CC2CN(c2ccc(-c4cc(N5CCOCC5)cn5ncc(C#N)c45)cn2)C3)cn1 [Trifluoroacetate of compound 12]
1.21 nM,–,COc1ncc(CN2C3CC2CN(c2ccc(-c4cc(N5CCOCC5)cn5ncc(C#N)c45)cn2)C3)cc1F [Trifluoroacetate of compound 15]
0.9 nM,–,COc1ccc(CN2C3CC2CN(c2ccc(-c4cc(N5CCN(C(C)=O)CC5)cn5ncc(C#N)c45)cn2)C3)cn1 [Trifluoroacetate of compound 20]
1.16 nM,–,COc1ccc(CN2C3CC2CN(c2ccc(-c4cc(C5=CCN(C)CC5)cn5ncc(C#N)c45)cn2)C3)cn1 [Trifluoroacetate of compound 46]
0.63 nM,–,COc1ccc(CN2C3CC2CN(c2ccc(-c4cc(C5=CCC6(CC5)COC6)cn5ncc(C#N)c45)cn2)C3)cn1 [Trifluoroacetate of compound 47]
0.96 nM,–,N#Cc1cnn2cc(C3=CCOCC3)cc(-c3ccc(N4CC5CC(C4)N5Cc4ccc(C(F)(F)F)nc4)nc3)c12 [Trifluoroacetate of compound 56]
0.72 nM,–,N#Cc1cnn2cc(N3CC[C@@H](F)C3)cc(-c3ccc(N4CC5CC(C4)N5Cc4cnc5[nH]ccc5c4)nc3)c12 [Trifluoroacetate of compound 73]
0.72 nM,–,N#Cc1cnn2cc(C3=CCOCC3)cc(-c3ccc(N4CC5CC(C4)N5Cc4ccnc5c4OCO5)nc3)c12 [Triftuoroacetate of compound 43]
0.77 nM,–,COc1ccc(CN2C3CC2CN(c2ccc(-c4cc(N5CC[C@H](OC)C5)cn5ncc(C#N)c45)cn2)C3)cn1 [compound 78]
